The record followed here is paper PMC5218480 (PLoS ONE, 2017).

Each structure is given as a SMILES string.

The assay relates to MV-4-11 cells. Description: Gene expression microarray analysis (Affymetrix PrimeView) and GSEA. The format is cell-based, human. The arrangement: RFU PODN (11730768_x_at) / Fold change /veh PODN (11730768_x_at) / RFU LINC00158 (11744669_a_at) / Fold change /veh LINC00158 (11744669_a_at) / RFU DUSP10 (11751237_a_at) / Fold change /veh DUSP10 (11751237_a_at) / RFU ID3 (11757404_x_at) / Fold change /veh ID3 (11757404_x_at) / RFU PLEKHG5 (11737974_s_at) / Fold change /veh PLEKHG5 (11737974_s_at) / RFU LRRC4B (11730491_at) / Fold change /veh LRRC4B (11730491_at) / RFU GIMAP4 (11747438_a_at) / Fold change /veh GIMAP4 (11747438_a_at) / RFU KRT8 (11758183_x_at) / Fold change /veh KRT8 (11758183_x_at) / RFU CNN1 (11734310_a_at) / Fold change /veh CNN1 (11734310_a_at) / RFU VPS37D (11726825_at) / Fold change /veh VPS37D (11726825_at) / RFU C10orf10 (11716522_x_at) / Fold change /veh C10orf10 (11716522_x_at) / RFU KIR2DL2 /// KIR2DL4 /// KIR2DL5A /// KIR2DL5B /// KIR2DS1 /// KIR2DS2 /// KIR2DS3 /// KIR2DS4 /// KIR3DL3 /// KIR3DL3 /// KIR3DS1 (11738374_at) / Fold change /veh KIR2DL2 /// KIR2DL4 /// KIR2DL5A /// KIR2DL5B /// KIR2DS1 /// KIR2DS2 /// KIR2DS3 /// KIR2DS4 /// KIR3DL3 /// KIR3DL3 /// KIR3DS1 (11738374_at) / RFU C1QL1 (11718748_at) / Fold change /veh C1QL1 (11718748_at) / RFU TMPRSS4 (11747572_a_at) / Fold change /veh TMPRSS4 (11747572_a_at) / RFU HAMP (11756126_x_at) / Fold change /veh HAMP (11756126_x_at) / RFU RNFT2 (11725882_a_at) / Fold change /veh RNFT2 (11725882_a_at) / RFU NR4A2 (11747474_a_at) / Fold change /veh NR4A2 (11747474_a_at) / RFU ABCC12 (11746883_a_at) / Fold change /veh ABCC12 (11746883_a_at) / RFU TMEM136 (11760407_x_at) / Fold change /veh TMEM136 (11760407_x_at) / RFU CLDN22 /// WWC2 (11732394_at) / Fold change /veh CLDN22 /// WWC2 (11732394_at) / RFU HLA-DPB1 (11760878_x_at) / Fold change /veh HLA-DPB1 (11760878_x_at) / RFU SPINT1 (11716480_a_at) / Fold change /veh SPINT1 (11716480_a_at) / RFU GAP43 (11754022_s_at) / Fold change /veh GAP43 (11754022_s_at) / RFU A4GNT (11735810_at) / Fold change /veh A4GNT (11735810_at) / RFU PRB3 (11715151_x_at) / Fold change /veh PRB3 (11715151_x_at) / RFU TUBB4B (11761932_at) / Fold change /veh TUBB4B (11761932_at) / RFU CAPN14 (11732068_a_at) / Fold change /veh CAPN14 (11732068_a_at) / RFU TMCC2 (11721928_a_at) / Fold change /veh TMCC2 (11721928_a_at) / RFU IRGQ (11745062_a_at) / Fold change /veh IRGQ (11745062_a_at) / RFU FAM174B (11720279_a_at) / Fold change /veh FAM174B (11720279_a_at) / RFU TMPRSS4 (11748680_a_at) / Fold change /veh TMPRSS4 (11748680_a_at) / RFU FAM212B (11763350_a_at) / Fold change /veh FAM212B (11763350_a_at) / RFU PLEKHG5 (11743358_a_at) / Fold change /veh PLEKHG5 (11743358_a_at) / RFU ZSCAN30 (11745921_a_at) / Fold change /veh ZSCAN30 (11745921_a_at) / RFU CMKLR1 (11741424_a_at) / Fold change /veh CMKLR1 (11741424_a_at) / RFU LOC101060620 /// MAPK8IP1 (11723275_at) / Fold change /veh LOC101060620 /// MAPK8IP1 (11723275_at) / RFU SPTSSB (11747773_x_at) / Fold change /veh SPTSSB (11747773_x_at) / RFU PRSS12 (11739890_at) / Fold change /veh PRSS12 (11739890_at) / RFU BIN1 (11741810_x_at) / Fold change /veh BIN1 (11741810_x_at) / RFU WNT11 (11732464_a_at) / Fold change /veh WNT11 (11732464_a_at) / RFU C10orf10 (11716521_a_at) / Fold change /veh C10orf10 (11716521_a_at) / RFU C5orf56 (11738089_at) / Fold change /veh C5orf56 (11738089_at) / RFU CYB561 (11721691_x_at) / Fold change /veh CYB561 (11721691_x_at) / RFU ANKRD19P (11752326_a_at) / Fold change /veh ANKRD19P (11752326_a_at) / RFU OR2T12 /// OR2T33 /// OR2T8 (11738714_s_at) / Fold change /veh OR2T12 /// OR2T33 /// OR2T8 (11738714_s_at) / RFU VCAN (11748164_a_at) / Fold change /veh VCAN (11748164_a_at) / RFU JSRP1 (11732532_at) / Fold change /veh JSRP1 (11732532_at) / RFU KRTAP10-11 (11738290_x_at) / Fold change /veh KRTAP10-11 (11738290_x_at) / RFU MYO3A (11730013_a_at) / Fold change /veh MYO3A (11730013_a_at) / RFU EBF3 (11725865_a_at) / Fold change /veh EBF3 (11725865_a_at) / RFU CAMK2N1 (11719241_x_at) / Fold change /veh CAMK2N1 (11719241_x_at) / RFU C5orf56 (11738088_a_at) / Fold change /veh C5orf56 (11738088_a_at) / RFU OLFML3 (11715873_a_at) / Fold change /veh OLFML3 (11715873_a_at) / RFU LOC100653217 /// NTM (11731650_a_at) / Fold change /veh LOC100653217 /// NTM (11731650_a_at) / RFU MAPK11 (11762145_a_at) / Fold change /veh MAPK11 (11762145_a_at) / RFU FIZ1 (11724087_x_at) / Fold change /veh FIZ1 (11724087_x_at) / RFU OASL (11726364_x_at) / Fold change /veh OASL (11726364_x_at) / RFU SOX15 (11748057_x_at) / Fold change /veh SOX15 (11748057_x_at) / RFU CD79A (11719716_a_at) / Fold change /veh CD79A (11719716_a_at) / RFU HIST1H1D (11736915_at) / Fold change /veh HIST1H1D (11736915_at) / RFU CASKIN2 (11723855_a_at) / Fold change /veh CASKIN2 (11723855_a_at) / RFU LOC730098 (11760151_x_at) / Fold change /veh LOC730098 (11760151_x_at) / RFU OR4N2 (11742367_at) / Fold change /veh OR4N2 (11742367_at) / RFU PRRT2 (11749266_a_at) / Fold change /veh PRRT2 (11749266_a_at) / RFU SNX32 (11753110_a_at) / Fold change /veh SNX32 (11753110_a_at) / RFU CDHR5 (11726645_a_at) / Fold change /veh CDHR5 (11726645_a_at) / RFU RCAN1 (11760418_a_at) / Fold change /veh RCAN1 (11760418_a_at) / RFU FAM167A (11723789_a_at) / Fold change /veh FAM167A (11723789_a_at) / RFU FAM26E (11764081_at) / Fold change /veh FAM26E (11764081_at) / RFU ISYNA1 (11749810_s_at) / Fold change /veh ISYNA1 (11749810_s_at) / RFU ACY1 (11761880_at) / Fold change /veh ACY1 (11761880_at) / RFU 11764098_at / Fold change /veh 11764098_at / RFU SAMD14 (11745864_x_at) / Fold change /veh SAMD14 (11745864_x_at) / RFU NPB (11741838_a_at) / Fold change /veh NPB (11741838_a_at) / RFU TMPRSS6 (11731388_a_at) / Fold change /veh TMPRSS6 (11731388_a_at) / RFU KRTAP10-2 (11738614_at) / Fold change /veh KRTAP10-2 (11738614_at) / RFU ARHGAP8 /// PRR5-ARHGAP8 (11727945_x_at) / Fold change /veh ARHGAP8 /// PRR5-ARHGAP8 (11727945_x_at) / RFU KRTAP5-7 /// NADSYN1 (11734609_at) / Fold change /veh KRTAP5-7 /// NADSYN1 (11734609_at) / RFU RASL12 (11751679_a_at) / Fold change /veh RASL12 (11751679_a_at) / RFU CDKN2B (11736163_a_at) / Fold change /veh CDKN2B (11736163_a_at) / RFU PRF1 (11729649_at) / Fold change /veh PRF1 (11729649_at) / RFU, ZNF638 /// ZNF638-IT1 / Fold change vs veh, ZNF638 /// ZNF638-IT1 / RFU, PANK3 / Fold change vs veh, PANK3 / RFU, SH3YL1 / Fold change vs veh, SH3YL1 / RFU, ZEB2 / Fold change vs veh, ZEB2 / RFU, NRIP1 / Fold change vs veh, NRIP1 / RFU, PTTG1IP / Fold change vs veh, PTTG1IP / RFU, CAPN2 / Fold change vs veh, CAPN2 / RFU, MED14 / Fold change vs veh, MED14 / RFU, SNORA58 / Fold change vs veh, SNORA58 / RFU, C1orf63 / Fold change vs veh, C1orf63 / RFU, LRRFIP1 / Fold change vs veh, LRRFIP1 / RFU, NDUFAF7 / Fold change vs veh, NDUFAF7 / RFU, SLC12A2 / Fold change vs veh, SLC12A2 / RFU, IBTK / Fold change vs veh, IBTK / RFU, ESF1 / Fold change vs veh, ESF1 / Fold change vs veh, TMEM50B / RFU, TAOK1 / Fold change vs veh, TAOK1 / RFU, ACBD3 / Fold change vs veh, ACBD3 / RFU, TMA16 / Fold change vs veh, TMA16 / RFU, RWDD3 / Fold change vs veh, RWDD3 / RFU, BCAT1 / Fold change vs veh, BCAT1 / RFU, EDEM3 / Fold change vs veh, EDEM3 / RFU, TMEM33 / Fold change vs veh, TMEM33 / RFU, WDR75 / Fold change vs veh, WDR75 / RFU, AHCTF1 / Fold change vs veh, AHCTF1 / RFU, TFRC / Fold change vs veh, TFRC / RFU, ZDHHC17 / Fold change vs veh, ZDHHC17 / RFU, NOM1 / Fold change vs veh, NOM1 / RFU, ARL8B / Fold change vs veh, ARL8B / RFU, ZBTB11 / Fold change vs veh, ZBTB11 / RFU, TAMM41 / Fold change vs veh, TAMM41 / RFU, KIAA1704 /// LOC100996395 / Fold change vs veh, KIAA1704 /// LOC100996395 / RFU, ING1 / Fold change vs veh, ING1 / RFU, TRMT61B / Fold change vs veh, TRMT61B / RFU, FUBP3 / Fold change vs veh, FUBP3 / RFU, TP53 / Fold change vs veh, TP53 / RFU, TNKS2 / Fold change vs veh, TNKS2 / RFU, ZFP14 / Fold change vs veh, ZFP14 / RFU, ACTR2 / Fold change vs veh, ACTR2 / RFU, PPP3R1 / Fold change vs veh, PPP3R1 / RFU, PIK3R1 / Fold change vs veh, PIK3R1 / RFU, HNRNPA1 / Fold change vs veh, HNRNPA1 / RFU, RNF170 / Fold change vs veh, RNF170 / RFU, ZNF28 / Fold change vs veh, ZNF28 / RFU, RNGTT / Fold change vs veh, RNGTT / RFU, OGT / Fold change vs veh, OGT / RFU, BRD1 / Fold change vs veh, BRD1 / RFU, MARS / Fold change vs veh, MARS / RFU, ZNF655 / Fold change vs veh, ZNF655 / RFU, FAHD1 / Fold change vs veh, FAHD1 / RFU, BDP1 / Fold change vs veh, BDP1 / RFU, LRRCC1 / Fold change vs veh, LRRCC1 / RFU, ARID1A / Fold change vs veh, ARID1A / RFU, ZNF146 / Fold change vs veh, ZNF146 / RFU, ZNF330 / Fold change vs veh, ZNF330 / RFU, GPN3 / Fold change vs veh, GPN3 / RFU, C9orf123 / Fold change vs veh, C9orf123 / RFU, N4BP2L2 / Fold change vs veh, N4BP2L2 / RFU, ARFIP1 / Fold change vs veh, ARFIP1 / RFU, FAM179B / Fold change vs veh, FAM179B / RFU, BCL10 / Fold change vs veh, BCL10 / RFU, UHRF1BP1L / Fold change vs veh, UHRF1BP1L / RFU, BET1 / Fold change vs veh, BET1 / RFU, CNOT2 / Fold change vs veh, CNOT2 / RFU, ZNF268 / Fold change vs veh, ZNF268 / Fold change vs veh, ZNF507 / RFU, DGCR2 / Fold change vs veh, DGCR2 / RFU, WDSUB1 / Fold change vs veh, WDSUB1 / Fold change vs veh, HSP90B1 /// MIR3652 / RFU, ADSS / Fold change vs veh, ADSS / RFU, GK / Fold change vs veh, GK / RFU, ZNF148 / Fold change vs veh, ZNF148 / RFU, TAF9 / Fold change vs veh, TAF9 / RFU, SLC1A5 / Fold change vs veh, SLC1A5 / RFU, SLMO2 / Fold change vs veh, SLMO2 / RFU, ABCC4 / Fold change vs veh, ABCC4 / RFU, LOC101060439 /// RAP1B / Fold change vs veh, LOC101060439 /// RAP1B / RFU, RFX7 / Fold change vs veh, RFX7 / RFU, GTPBP10 / Fold change vs veh, GTPBP10 / RFU, CNEP1R1 / Fold change vs veh, CNEP1R1 / RFU, BIVM-ERCC5 /// ERCC5 / Fold change vs veh, BIVM-ERCC5 /// ERCC5 / RFU, ILF3 / Fold change vs veh, ILF3 / RFU 11762660_at / Fold change /veh 11762660_at / RFU VCAN (11757783_s_at) / Fold change /veh VCAN (11757783_s_at) / RFU DDX43 (11728927_at) / Fold change /veh DDX43 (11728927_at) / RFU KRT8 (11758188_x_at) / Fold change /veh KRT8 (11758188_x_at) / RFU NKD1 (11759106_at) / Fold change /veh NKD1 (11759106_at) / RFU SRD5A1 (11742802_a_at) / Fold change /veh SRD5A1 (11742802_a_at) / RFU TPSAB1 /// TPSB2 (11721975_s_at) / Fold change /veh TPSAB1 /// TPSB2 (11721975_s_at) / RFU GSTM3 (11746129_a_at) / Fold change /veh GSTM3 (11746129_a_at) / RFU IL23R (11737362_x_at) / Fold change /veh IL23R (11737362_x_at) / RFU TMEM51 (11727254_a_at) / Fold change /veh TMEM51 (11727254_a_at) / RFU PIWIL2 (11732686_x_at) / Fold change /veh PIWIL2 (11732686_x_at) / RFU ORM1 (11744905_x_at) / Fold change /veh ORM1 (11744905_x_at) / RFU CCDC152 (11743942_at) / Fold change /veh CCDC152 (11743942_at) / RFU ECM1 (11717891_a_at) / Fold change /veh ECM1 (11717891_a_at) / RFU IL23R (11748794_a_at) / Fold change /veh IL23R (11748794_a_at) / RFU TNFAIP8L3 (11732012_x_at) / Fold change /veh TNFAIP8L3 (11732012_x_at) / RFU MBOAT4 (11741988_at) / Fold change /veh MBOAT4 (11741988_at) / RFU 11764193_at / Fold change /veh 11764193_at / RFU TMEM53 (11763286_at) / Fold change /veh TMEM53 (11763286_at) / RFU MAGEB2 (11727129_at) / Fold change /veh MAGEB2 (11727129_at) / RFU TMEM200A (11744735_a_at) / Fold change /veh TMEM200A (11744735_a_at) / RFU CCDC152 (11751479_a_at) / Fold change /veh CCDC152 (11751479_a_at) / RFU FAM211A (11726209_a_at) / Fold change /veh FAM211A (11726209_a_at) / RFU RGS16 (11746705_a_at) / Fold change /veh RGS16 (11746705_a_at) / RFU VCAN (11755009_s_at) / Fold change /veh VCAN (11755009_s_at) / RFU RHOB (11743442_s_at) / Fold change /veh RHOB (11743442_s_at) / RFU RGS16 (11720943_a_at) / Fold change /veh RGS16 (11720943_a_at) / RFU RGS16 (11720944_at) / Fold change /veh RGS16 (11720944_at) / RFU, VPS4B / Fold change vs veh, VPS4B / RFU, CREB1 / Fold change vs veh, CREB1 / RFU, DNAJC13 / Fold change vs veh, DNAJC13 / RFU, GNAQ / Fold change vs veh, GNAQ / RFU, CDK5R1 / Fold change vs veh, CDK5R1 / RFU, ZRANB3 / Fold change vs veh, ZRANB3 / RFU, CUL4A / Fold change vs veh, CUL4A / RFU, CCNY / Fold change vs veh, CCNY / RFU, UFL1 / Fold change vs veh, UFL1 / RFU, COG3 / Fold change vs veh, COG3 / RFU, DIAPH2 / Fold change vs veh, DIAPH2 / RFU, SKA2 / Fold change vs veh, SKA2 / RFU, AFF3 / Fold change vs veh, AFF3 / RFU, LMF1 / Fold change vs veh, LMF1 / RFU, IPO11 / Fold change vs veh, IPO11 / RFU, DFFB / Fold change vs veh, DFFB / RFU, FOXP1 / Fold change vs veh, FOXP1 / RFU, CARD8 / Fold change vs veh, CARD8 / RFU, STRN3 / Fold change vs veh, STRN3 / RFU, ADK / Fold change vs veh, ADK / RFU, RASSF2 / Fold change vs veh, RASSF2 / RFU, WIPF1 / Fold change vs veh, WIPF1 / RFU, LARP1B / Fold change vs veh, LARP1B / RFU, RASA1 / Fold change vs veh, RASA1 / RFU, RB1 / Fold change vs veh, RB1 / RFU, PPFIA1 / Fold change vs veh, PPFIA1 / RFU, MAT2A / Fold change vs veh, MAT2A / RFU, CCT5 / Fold change vs veh, CCT5 / RFU, WDR92 / Fold change vs veh, WDR92 / RFU, CUX1 / Fold change vs veh, CUX1 / RFU, TTC7A / Fold change vs veh, TTC7A / RFU, TMEM135 / Fold change vs veh, TMEM135 / RFU, DEPTOR / Fold change vs veh, DEPTOR / RFU, CPM / Fold change vs veh, CPM / RFU, DNAJB6 / Fold change vs veh, DNAJB6 / RFU, CACNA2D3 / Fold change vs veh, CACNA2D3 / RFU, DTX4 / Fold change vs veh, DTX4 / RFU, TFCP2 / Fold change vs veh, TFCP2 / RFU, GMCL1 /// GMCL1P1 / Fold change vs veh, GMCL1 /// GMCL1P1 / RFU, AEBP2 / Fold change vs veh, AEBP2 / RFU, SNHG1 /// SNORD22 /// SNORD25 /// SNORD26 /// SNORD27 /// SNORD28 /// SNORD29 /// SNORD31 / Fold change vs veh, SNHG1 /// SNORD22 /// SNORD25 /// SNORD26 /// SNORD27 /// SNORD28 /// SNORD29 /// SNORD31 / Fold change (Aza/veh), C12orf56 (ProbeSet 11735607_a_at) / Fold change (ACY-1035/veh), C12orf56 (ProbeSet 11735607_a_at) / Fold change (Aza/veh), FGFR1OP (ProbeSet 11751329_s_at) / Fold change (ACY-1035/veh), FGFR1OP (ProbeSet 11751329_s_at) / Fold change (Aza/veh), VPS36 (ProbeSet 11739960_a_at) / Fold change (ACY-1035/veh), VPS36 (ProbeSet 11739960_a_at) / RFU SYPL1 (11715823_x_at) / Fold change /veh SYPL1 (11715823_x_at) / RFU IGFBP7 (11715501_s_at) / Fold change /veh IGFBP7 (11715501_s_at) / RFU REEP3 (11722064_at) / Fold change /veh REEP3 (11722064_at) / RFU IGLL1 (11728026_x_at) / Fold change /veh IGLL1 (11728026_x_at): dose or concentration left out as unconfirmed. Conditions: MV-4-11 cells, 48 hours.

`Nc1ncn([C@@H]2O[C@H](CO)[C@@H](O)[C@H]2O)c(=O)n1` [azacitidine]: the “Fold change /veh ACY1 (11761880_at)” value worked out at 1.09.
